Test results as given in patent US7880007B2, “Bicyclic substituted phenyl piperidine modulators of muscarinic receptors” (Vertex Pharmaceuticals Incorporated, priority 2004, dated 2011).

Assays:
Assay type in all cases: cell-based
M4 muscarinic receptor = molecular target: T1, M4 muscarinic receptor (Homo sapiens, UniProt P08173); experiment: Functional mobilization of intracellular calcium (FLIPR), M4-CHO cells; conditions: for Emax: 100% efficacy = maximum response obtained with the Carbachol control; for M4 Activity: M4-CHO cells, calcium mobilization (FLIPR)
T1 construct: expressed in transfected cells; host or cells: CHO (M4-CHO)
T1 sequence (P08173 1-479): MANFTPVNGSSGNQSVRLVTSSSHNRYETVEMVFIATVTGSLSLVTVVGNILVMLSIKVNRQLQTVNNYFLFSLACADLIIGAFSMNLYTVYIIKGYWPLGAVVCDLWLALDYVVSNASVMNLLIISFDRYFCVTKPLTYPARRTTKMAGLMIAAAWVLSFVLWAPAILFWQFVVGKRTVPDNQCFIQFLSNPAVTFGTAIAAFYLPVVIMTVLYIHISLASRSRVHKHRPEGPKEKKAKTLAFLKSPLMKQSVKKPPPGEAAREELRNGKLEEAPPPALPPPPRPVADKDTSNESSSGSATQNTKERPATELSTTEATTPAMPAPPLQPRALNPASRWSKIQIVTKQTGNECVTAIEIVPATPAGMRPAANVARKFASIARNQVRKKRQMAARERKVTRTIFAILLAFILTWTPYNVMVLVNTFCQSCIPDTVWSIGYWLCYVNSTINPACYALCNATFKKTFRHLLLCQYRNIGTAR
Outline: (§1)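 CHO cells expressing human M1–M4 receptors loaded with Fluo-3 AM or Calcium 3 dye (1 mM probenecid, pH 7.4); 0.5% DMSO final. Agonist mode: compound added directly; antagonist mode: 15 min pre-incubation or co-application, then carbachol at EC80. Fluorescence read 60 s on FLIPR; efficacy relative to carbachol maximum.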

M2 muscarinic receptor = molecular target: T2, M2 muscarinic receptor (Homo sapiens, UniProt P08172); experiment: Functional mobilization of intracellular calcium (FLIPR), M2-CHO cells; conditions: for Emax: 100% efficacy = maximum response obtained with the Carbachol control; for M2 Activity: M2-CHO cells, calcium mobilization (FLIPR)
T2 construct: expressed in transfected cells; host or cells: CHO (M2-CHO)
T2 sequence (P08172 1-466): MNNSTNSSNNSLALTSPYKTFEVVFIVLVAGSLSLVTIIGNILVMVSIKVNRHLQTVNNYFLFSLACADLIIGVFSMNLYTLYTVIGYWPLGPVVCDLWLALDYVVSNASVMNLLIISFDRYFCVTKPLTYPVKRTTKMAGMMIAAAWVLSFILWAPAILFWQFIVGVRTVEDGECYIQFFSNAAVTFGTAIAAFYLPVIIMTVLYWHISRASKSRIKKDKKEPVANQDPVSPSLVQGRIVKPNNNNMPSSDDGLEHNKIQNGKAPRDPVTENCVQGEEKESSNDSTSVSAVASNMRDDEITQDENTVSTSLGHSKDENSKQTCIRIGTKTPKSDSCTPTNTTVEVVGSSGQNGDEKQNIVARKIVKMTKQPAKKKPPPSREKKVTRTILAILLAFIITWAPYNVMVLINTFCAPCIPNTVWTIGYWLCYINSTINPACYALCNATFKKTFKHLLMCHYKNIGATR
Outline: as §1

M3 muscarinic receptor = molecular target: T3, M3 muscarinic receptor (Homo sapiens, UniProt P20309); experiment: Functional mobilization of intracellular calcium (FLIPR), M3-CHO cells; conditions: for Emax: 100% efficacy = maximum response obtained with the Carbachol control; for M3 Activity: M3-CHO cells, calcium mobilization (FLIPR)
T3 construct: expressed in transfected cells; host or cells: CHO (M3-CHO)
T3 sequence (P20309 whole entry): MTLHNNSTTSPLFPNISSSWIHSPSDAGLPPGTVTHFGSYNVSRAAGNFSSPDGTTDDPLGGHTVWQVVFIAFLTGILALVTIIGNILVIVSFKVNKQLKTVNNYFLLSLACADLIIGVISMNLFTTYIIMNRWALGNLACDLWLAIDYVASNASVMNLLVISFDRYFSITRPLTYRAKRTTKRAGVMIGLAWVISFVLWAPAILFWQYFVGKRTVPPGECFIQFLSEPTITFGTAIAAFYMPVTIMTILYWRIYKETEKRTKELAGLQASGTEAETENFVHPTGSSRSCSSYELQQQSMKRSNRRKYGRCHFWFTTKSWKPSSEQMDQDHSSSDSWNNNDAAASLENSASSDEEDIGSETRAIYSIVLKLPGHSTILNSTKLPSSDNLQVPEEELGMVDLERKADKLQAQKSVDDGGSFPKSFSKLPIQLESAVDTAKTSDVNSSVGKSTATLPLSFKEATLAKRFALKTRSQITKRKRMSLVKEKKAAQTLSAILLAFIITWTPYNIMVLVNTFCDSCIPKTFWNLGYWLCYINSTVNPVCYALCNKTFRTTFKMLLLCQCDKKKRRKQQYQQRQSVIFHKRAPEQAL
Outline: as §1

M1 muscarinic receptor = molecular target: T4, M1 muscarinic receptor (Homo sapiens, UniProt P11229); experiment: Functional mobilization of intracellular calcium (FLIPR), M1-CHO cells; conditions: for Emax: 100% efficacy = maximum response obtained with the Carbachol control; for M1 Activity: M1-CHO cells, calcium mobilization (FLIPR)
T4 construct: expressed in transfected cells; host or cells: CHO (M1-CHO)
T4 sequence (P11229 1-460): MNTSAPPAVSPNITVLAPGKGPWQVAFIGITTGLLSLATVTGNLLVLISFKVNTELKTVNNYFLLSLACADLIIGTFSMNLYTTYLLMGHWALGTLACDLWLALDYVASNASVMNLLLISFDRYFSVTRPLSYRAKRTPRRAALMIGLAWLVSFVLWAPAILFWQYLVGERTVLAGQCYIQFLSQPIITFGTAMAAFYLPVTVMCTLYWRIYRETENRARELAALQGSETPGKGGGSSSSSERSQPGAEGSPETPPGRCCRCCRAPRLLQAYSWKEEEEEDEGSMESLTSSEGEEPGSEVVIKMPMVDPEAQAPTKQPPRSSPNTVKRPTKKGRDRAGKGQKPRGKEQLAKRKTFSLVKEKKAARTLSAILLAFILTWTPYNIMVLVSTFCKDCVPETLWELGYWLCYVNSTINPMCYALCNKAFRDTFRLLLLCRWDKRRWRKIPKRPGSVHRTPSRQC
Outline: as §1

| SMILES | Emax (M4 muscarinic receptor) | Emax (M2 muscarinic receptor) | Emax (M3 muscarinic receptor) | Emax (M1 muscarinic receptor) | M4 Activity (M4 muscarinic receptor) | M2 Activity (M2 muscarinic receptor) | M3 Activity (M3 muscarinic receptor) | M1 Activity (M1 muscarinic receptor) |
| --- | --- | --- | --- | --- | --- | --- | --- | --- |
| COc1ccc(Cl)cc1C1(OC)CCN(C[C@H]2C[C@H]3C=C[C@@H]2C3)CC1 [Compound 140, 1-(((1S,2S,4S)-bicyclo[2.2.1]hept-5-en-2-yl)methyl)-4-(5-chloro-2-methoxyphenyl)-4-methoxypiperidine] | 25 to 100% | 25 to 100% | < 25% | 25 to 100% | +++ (activity was measured to be less than 1.0 μM) | ++ (activity was measured to be from 1.0 μM to 5.0 μM) | + (activity was measured to be greater than 5.0 μM) | ++ (activity was measured to be from 1.0 μM to 5.0 μM) |
| COc1ccc(-c2cccc(C(N)=O)c2)cc1C1CCN([C@@H]2C[C@H]3CC[C@H]2C3)CC1 [Compound 144] | < 25% | < 25% | < 25% | < 25% | + (activity was measured to be greater than 5.0 μM) | + (activity was measured to be greater than 5.0 μM) | + (activity was measured to be greater than 5.0 μM) | + (activity was measured to be greater than 5.0 μM) |
| CCOC(=O)N1CCC(CN2CCC(c3cc(-c4ccc(S(C)(=O)=O)cc4)ccc3OC)CC2)CC1 [Compound 146] | 25 to 100% | < 25% | < 25% | 25 to 100% | +++ (activity was measured to be less than 1.0 μM) | + (activity was measured to be greater than 5.0 μM) | + (activity was measured to be greater than 5.0 μM) | +++ (activity was measured to be less than 1.0 μM) |
| c1ccc(C2CCN([C@H]3C[C@H]4CC[C@H]3C4)CC2)c(OCC2CCCCO2)c1 (some centres unmarked) [Compound 147] | 25 to 100% | 25 to 100% | < 25% | 25 to 100% | +++ (activity was measured to be less than 1.0 μM) | ++ (activity was measured to be from 1.0 μM to 5.0 μM) | + (activity was measured to be greater than 5.0 μM) | ++ (activity was measured to be from 1.0 μM to 5.0 μM) |

The next lines start with results.

| Emax (M4 muscarinic receptor) | Emax (M2 muscarinic receptor) | Emax (M3 muscarinic receptor) | Emax (M1 muscarinic receptor) | SMILES | M4 Activity (M4 muscarinic receptor) | M2 Activity (M2 muscarinic receptor) | M3 Activity (M3 muscarinic receptor) | M1 Activity (M1 muscarinic receptor) |
| --- | --- | --- | --- | --- | --- | --- | --- | --- |
| 25 to 100% | < 25% | < 25% | 25 to 100% | COc1ccc(-c2ccccc2C2CCN([C@H]3C[C@H]4CC[C@H]3C4)CC2)c(OC)c1 [Compound 139] | ++ (activity was measured to be from 1.0 μM to 5.0 μM) | + (activity was measured to be greater than 5.0 μM) | + (activity was measured to be greater than 5.0 μM) | + (activity was measured to be greater than 5.0 μM) |
| 25 to 100% | 25 to 100% | < 25% | 25 to 100% | Clc1ccc(-c2ccccc2C2CCN([C@H]3C[C@H]4CC[C@H]3C4)CC2)cc1 [Compound 142] | ++ (activity was measured to be from 1.0 μM to 5.0 μM) | + (activity was measured to be greater than 5.0 μM) | + (activity was measured to be greater than 5.0 μM) | + (activity was measured to be greater than 5.0 μM) |
| 25 to 100% | < 25% | < 25% | < 25% | COc1ccc(-c2cccc(Cl)c2)cc1C1CCN([C@@H]2C[C@H]3CC[C@H]2C3)CC1 [Compound 143] | + (activity was measured to be greater than 5.0 μM) | + (activity was measured to be greater than 5.0 μM) | + (activity was measured to be greater than 5.0 μM) | + (activity was measured to be greater than 5.0 μM) |
